Results on 14 compounds are retold here after patent US8481696B2, “Glycosylated glycopeptide antibiotic derivatives” (Shionogi & Co., Ltd., priority 2007, dated 2013).

Structures are written as SMILES. In brackets after ≈: the same amount, converted by molar mass. Where two headings read alike, the source gives them in different places. Where only a bound is given, the exact number is not on record here.

The subject of one assay is E. faecalis SR7914. Briefly: In vitro measurement of antibacterial activity (MIC, liquid dilution method). The class given is cell-based. As to conditions: E. faecalis SR7914, vancomycin-resistant Enterococcus (VRE VanA); cation-adjusted Muller Hinton liquid medium; read-out: MIC (minimum growth inhibition concentration). How it is done: (§1) Some of the present compounds were measured for a minimum growth inhibition concentration (MIC) by a small amount of liquid dilution method using a cation-adjusted Muller Hinton liquid medium well-known to a person skilled in the art.

The subject of the next assay is E. faecium SR7940. The assay is described as above. The class given is cell-based. Particulars: Enterococcus faecium. The method, then: as §1
Where [1] appears, read: E. faecium SR7940, cation-adjusted Muller Hinton liquid medium, read-out: MIC (minimum growth inhibition concentration).

On to `CN[C@H](CC(C)C)C(=O)N[C@H]1C(=O)N[C@@H](CC(N)=O)C(=O)N[C@H]2C(=O)N[C@H]3C(=O)N[C@H](C(=O)N[C@@H](C(=O)O)c4cc(O)cc(O)c4-c4cc3ccc4O)[C@H](OC3C[C@](C)(N)[C@@H](O)[C@H](C)O3)c3ccc(c(Cl)c3)Oc3cc2cc(c3O[C@@H]2O[C@H](CO)[C@@H](O[C@@H]3O[C@H](CNCc4ccc(-c5cccs5)s4)[C@H](O)[C@H](O)[C@H]3O)[C@H](O)[C@H]2O)Oc2ccc(cc2Cl)[C@H]1O` (stereo partly drawn) [Example 75], for which the MIC lay within 2 to 4 µg/mL (≈ 1.12 to 2.24 µM) in the assay on E. faecalis SR7914 and 1 to 4 µg/mL (≈ 0.559 to 2.24 µM) in the assay on E. faecium SR7940 (setting [1]).
The corresponding values for `CN[C@H](CC(C)C)C(=O)NC1C(=O)N[C@@H](CC(N)=O)C(=O)N[C@H]2C(=O)N[C@H]3C(=O)N[C@H](C(=O)N[C@@H](C(=O)O)c4cc(O)cc(O)c4-c4cc3ccc4O)[C@H](O[C@H]3C[C@](C)(N)[C@@H](O)[C@H](C)O3)c3ccc(c(Cl)c3)Oc3cc2cc(c3O[C@@H]2O[C@H](CO)[C@@H](O[C@@H]3O[C@H](CNCc4ccc(-c5ccc(Cl)cc5)s4)[C@H](O)[C@H](O)[C@H]3O)[C@H](O)[C@H]2O)Oc2ccc(cc2Cl)[C@H]1O` (stereo partly drawn) [Example 13] are 2 to 4 µg/mL (≈ 1.1 to 2.2 µM) and 1 to 4 µg/mL (≈ 0.55 to 2.2 µM).
For the compound `CN[C@H](CC(C)C)C(=O)N[C@H]1C(=O)N[C@@H](CC(N)=O)C(=O)N[C@H]2C(=O)N[C@H]3C(=O)N[C@H](C(=O)N[C@@H](C(=O)O)c4cc(O)cc(O)c4-c4cc3ccc4O)[C@H](OC3C[C@](C)(N)[C@@H](O)[C@H](C)O3)c3ccc(c(Cl)c3)Oc3cc2cc(c3O[C@@H]2O[C@H](CO)[C@@H](O[C@@H]3O[C@H](CNCc4ccc(C(=O)NCc5ccc(Cl)c(Cl)c5)cc4)[C@H](O)[C@H](O)[C@H]3O)[C@H](O)[C@H]2O)Oc2ccc(cc2Cl)[C@H]1O` (stereo partly drawn) [Example 69], the MIC is 2 to 4 µg/mL (≈ 1.05 to 2.1 µM) in the assay with E. faecalis SR7914 and 1 to 4 µg/mL (≈ 0.526 to 2.1 µM) in the assay with E. faecium SR7940 (setting [1]).
Consider `CN[C@H](CC(C)C)C(=O)NC1C(=O)NC(CC(N)=O)C(=O)N[C@H]2C(=O)NC3C(=O)N[C@H](C(=O)N[C@H](C(=O)O)c4cc(O)cc(O)c4-c4cc3ccc4O)[C@H](O[C@H]3C[C@](C)(N)[C@@H](O)[C@H](C)O3)c3ccc(c(Cl)c3)Oc3cc2cc(c3O[C@@H]2O[C@H](CO)[C@@H](O[C@@H]3O[C@H](CNCCn4ccc(NC(=O)c5ccc(OC(F)(F)F)cc5)nc4=O)[C@H](O)[C@H](O)[C@H]3O)[C@H](O)[C@H]2O)Oc2ccc(cc2Cl)[C@H]1O` (stereo partly drawn) [Example 11], for which the MIC in the assay with E. faecalis SR7914 is 2 to 4 µg/mL (≈ 1.03 to 2.07 µM); in the assay on E. faecium SR7940 (setting [1]), 1 to 4 µg/mL (≈ 0.517 to 2.07 µM).
The corresponding values for `CN[C@H](CC(C)C)C(=O)NC1C(=O)N[C@@H](CC(N)=O)C(=O)N[C@H]2C(=O)N[C@H]3C(=O)N[C@H](C(=O)N[C@@H](C(=O)O)c4cc(O)cc(O)c4-c4cc3ccc4O)[C@H](O[C@H]3C[C@](C)(NCc4c[nH]cn4)[C@@H](O)[C@H](C)O3)c3ccc(c(Cl)c3)Oc3cc2cc(c3O[C@@H]2O[C@H](CO)[C@@H](O[C@@H]3O[C@H](CNCc4cccc(NC(=O)c5cccc(OC(F)(F)F)c5)c4)[C@H](O)[C@H](O)[C@H]3O)[C@H](O)[C@H]2O)Oc2ccc(cc2Cl)[C@H]1O` (stereo partly drawn) [Example 30] are 2 to 4 µg/mL (≈ 1.01 to 2.02 µM) and 1 to 4 µg/mL (≈ 0.504 to 2.02 µM).
With `CN[C@H](CC(C)C)C(=O)NC1C(=O)N[C@@H](CC(N)=O)C(=O)N[C@H]2C(=O)N[C@H]3C(=O)N[C@H](C(=O)N[C@@H](C(=O)O)c4cc(O)cc(O)c4-c4cc3ccc4O)[C@H](OC3C[C@](C)(N)[C@@H](O)[C@H](C)O3)c3ccc(c(Cl)c3)Oc3cc2cc(c3O[C@@H]2O[C@H](CO)[C@@H](O[C@@H]3O[C@H](CNCc4ccc(Oc5ccc(F)cc5)cc4)[C@H](O)[C@H](O)[C@H]3O)[C@H](O)[C@H]2O)Oc2ccc(cc2Cl)[C@H]1O` (stereo partly drawn) [Example 50], the MIC was in the range of 2 to 4 µg/mL (≈ 1.1 to 2.21 µM) in the assay with E. faecalis SR7914 and 1 to 4 µg/mL (≈ 0.552 to 2.21 µM) in the assay on E. faecium SR7940 (setting [1]).
With `CN[C@H](CC(C)C)C(=O)N[C@H]1C(=O)N[C@@H](CC(N)=O)C(=O)N[C@H]2C(=O)N[C@H]3C(=O)NC(C(=O)N[C@@H](C(=O)O)c4cc(O)cc(O)c4-c4cc3ccc4O)[C@H](O)c3ccc(c(Cl)c3)Oc3cc2cc(c3OC2O[C@H](CO)[C@@H](O)[C@H](O)[C@H]2OC2C[C@](C)(N)[C@H](O)[C@H](C)O2)Oc2ccc(cc2Cl)[C@H]1O` (stereo partly drawn) [vancomycin, reference compound], the MIC in the assay on E. faecium SR7940 (SR7940, read-out: MIC (minimum growth inhibition concentration)) was over 64 µg/mL.
For `CN[C@H](CC(C)C)C(=O)N[C@H]1C(=O)N[C@@H](CC(N)=O)C(=O)N[C@H]2C(=O)N[C@H]3C(=O)N[C@H](C(=O)N[C@@H](C(=O)O)c4cc(O)cc(O)c4-c4cc3ccc4O)[C@H](OC3C[C@](C)(N)[C@@H](O)[C@H](C)O3)c3ccc(c(Cl)c3)Oc3cc2cc(c3O[C@@H]2O[C@H](CO)[C@@H](O[C@@H]3O[C@H](CNCc4ccc(-n5cccc5)cc4)[C@H](O)[C@H](O)[C@H]3O)[C@H](O)[C@H]2O)Oc2ccc(cc2Cl)[C@H]1O` (stereo partly drawn) [Example 65], the MIC with E. faecalis SR7914 lay in the range of 2 to 4 µg/mL (≈ 1.13 to 2.27 µM); in the assay on E. faecium SR7940 (setting [1]), 1 to 4 µg/mL (≈ 0.566 to 2.27 µM).
For `CN[C@H](CC(C)C)C(=O)NC1C(=O)NC(CC(N)=O)C(=O)N[C@H]2C(=O)NC3C(=O)N[C@H](C(=O)N[C@H](C(=O)O)c4cc(O)cc(O)c4-c4cc3ccc4O)[C@H](OC3C[C@](C)(N)[C@@H](O)[C@H](C)O3)c3ccc(c(Cl)c3)Oc3cc2cc(c3O[C@@H]2O[C@H](CO)[C@@H](O[C@@H]3O[C@H](CNCc4ccc(-c5ccc(Cl)cc5)nc4)[C@H](O)[C@H](O)[C@H]3O)[C@H](O)[C@H]2O)Oc2ccc(cc2Cl)[C@H]1O` (stereo partly drawn) [Example 45] the same measures were 2 to 4 µg/mL (≈ 1.1 to 2.21 µM) and 1 to 4 µg/mL (≈ 0.552 to 2.21 µM).
In the case of `CN[C@H](CC(C)C)C(=O)N[C@H]1C(=O)N[C@@H](CC(N)=O)C(=O)N[C@H]2C(=O)N[C@H]3C(=O)N[C@H](C(=O)N[C@@H](C(=O)O)c4cc(O)cc(O)c4-c4cc3ccc4O)[C@H](O[C@H]3C[C@](C)(N)[C@@H](O)[C@H](C)O3)c3ccc(c(Cl)c3)Oc3cc2cc(c3O[C@@H]2O[C@H](CO)[C@@H](O[C@@H]3O[C@H](CNCc4ccc(-c5ccc(OC)cc5)s4)[C@H](O)[C@H](O)[C@H]3O)[C@H](O)[C@H]2O)Oc2ccc(cc2Cl)[C@H]1O` [Example 83], the MIC in the assay on E. faecalis SR7914 fell in the range of 2 to 4 µg/mL (≈ 1.1 to 2.21 µM); in the assay on E. faecium SR7940 (setting [1]) it was 1 to 4 µg/mL (≈ 0.552 to 2.21 µM).
As for `CN[C@H](CC(C)C)C(=O)NC1C(=O)NC(CC(N)=O)C(=O)N[C@H]2C(=O)NC3C(=O)N[C@H](C(=O)N[C@H](C(=O)O)c4cc(O)cc(O)c4-c4cc3ccc4O)[C@H](OC3C[C@](C)(N)[C@@H](O)[C@H](C)O3)c3ccc(c(Cl)c3)Oc3cc2cc(c3O[C@@H]2O[C@H](CO)[C@@H](O[C@@H]3O[C@H](CNCc4ccc(-c5cccc(F)c5)s4)[C@H](O)[C@H](O)[C@H]3O)[C@H](O)[C@H]2O)Oc2ccc(cc2Cl)[C@H]1O` (stereo partly drawn) [Example 43], the MIC in the assay on E. faecalis SR7914 lay in the range of 2 to 4 µg/mL (≈ 1.11 to 2.22 µM); with E. faecium SR7940 (setting [1]), 1 to 4 µg/mL (≈ 0.555 to 2.22 µM).
The corresponding values for `CN[C@H](CC(C)C)C(=O)N[C@H]1C(=O)N[C@@H](CC(N)=O)C(=O)N[C@H]2C(=O)N[C@H]3C(=O)N[C@H](C(=O)N[C@@H](C(=O)O)c4cc(O)cc(O)c4-c4cc3ccc4O)[C@H](O[C@H]3C[C@](C)(N)[C@@H](O)[C@H](C)O3)c3ccc(c(Cl)c3)Oc3cc2cc(c3O[C@@H]2O[C@H](CO)[C@@H](O[C@@H]3O[C@H](CNCc4ccc(-c5cc(F)cc(F)c5)s4)[C@H](O)[C@H](O)[C@H]3O)[C@H](O)[C@H]2O)Oc2ccc(cc2Cl)[C@H]1O` [Example 82] are 2 to 4 µg/mL (≈ 1.1 to 2.2 µM) and 1 to 4 µg/mL (≈ 0.55 to 2.2 µM).
For `CN[C@H](CC(C)C)C(=O)NC1C(=O)N[C@@H](CC(N)=O)C(=O)N[C@H]2C(=O)N[C@H]3C(=O)N[C@H](C(=O)N[C@@H](C(=O)O)c4cc(O)cc(O)c4-c4cc3ccc4O)[C@H](O[C@H]3C[C@](C)(NCc4cccnc4)[C@@H](O)[C@H](C)O3)c3ccc(c(Cl)c3)Oc3cc2cc(c3O[C@@H]2O[C@H](CO)[C@@H](O[C@@H]3O[C@H](CNCc4cccc(NC(=O)c5cccc(OC(F)(F)F)c5)c4)[C@H](O)[C@H](O)[C@H]3O)[C@H](O)[C@H]2O)Oc2ccc(cc2Cl)[C@H]1O` (stereo partly drawn) [Example 31] the same measures were 2 to 4 µg/mL (≈ 1 to 2.01 µM) and 1 to 4 µg/mL (≈ 0.501 to 2.01 µM).
For `CN[C@H](CC(C)C)C(=O)NC1C(=O)NC(CC(N)=O)C(=O)N[C@H]2C(=O)NC3C(=O)N[C@H](C(=O)NC(C(=O)O)c4cc(O)cc(O)c4-c4cc3ccc4O)[C@H](O[C@H]3C[C@](C)(N)[C@@H](O)[C@H](C)O3)c3ccc(c(Cl)c3)Oc3cc2cc(c3O[C@@H]2O[C@H](CO)[C@@H](O[C@@H]3O[C@H](CNCc4ccc(-c5ccc(F)c(F)c5)nc4)[C@H](O)[C@H](O)[C@H]3O)[C@H](O)[C@H]2O)Oc2ccc(cc2Cl)[C@H]1O` (stereo partly drawn) [Example 88] the same measures were 2 to 4 µg/mL (≈ 1.1 to 2.21 µM) and 1 to 4 µg/mL (≈ 0.551 to 2.21 µM).
